As a reminder, the IC50 is the concentration at which inhibition is half-maximal.

Common to all, as to assay type: functional, cell-based
For experiment [1], the system named is A549. Description: Cytotoxicity against human A549 cells assessed as inhibition of cell proliferation measured after 68 hrs by MTT assay. Particulars: A549, 68 h. (In general: Formazan colour is commonly taken as a measure of viable cells.)
In experiment [2] the test system is Huh-7. Description: Cytotoxicity against human Huh-7 cells assessed as inhibition of cell proliferation measured after 68 hrs by MTT assay. Particulars: Huh-7, 68 h.
The test system of experiment [3] is HT-29. As to the kind of experiment: Cytotoxicity against human HT-29 cells assessed as inhibition of cell proliferation measured after 68 hrs by MTT assay. Conditions: HT-29, 68 h.
Experiment [4] has as its system NCI-H460. Description: Cytotoxicity against human NCI-H460 cells assessed as inhibition of cell proliferation measured after 68 hrs by MTT assay. Conditions: NCI-H460, 68 h.
Experiment [5] has as its system MDA-MB-231. As to the kind of experiment: Cytotoxicity against human MDA-MB-231 cells assessed as inhibition of cell proliferation measured after 68 hrs by MTT assay. Particulars: MDA-MB-231, 68 h.
Experiment [6] relates to MDA-MB-435. As to the kind of experiment: Cytotoxicity against human MDA-MB-435 cells assessed as inhibition of cell proliferation measured after 68 hrs by MTT assay. Particulars: MDA-MB-435, 68 h.

`C/C=C(\C)[C@@H](O)[C@@H](C)/C=C(C)/C=C/C[C@H](C)/C=C/c1oc(=O)c(C)c(O)c1C`: the half-inhibitory concentration (IC50) was > 50000 nM in experiment [1]; > 50 µM in experiment [2]; > 50 µM in experiment [3]; > 50000 nM in experiment [4]; > 50000 nM in experiment [5]; > 50000 nM in experiment [6].

As for `C/C=C(\C)[C@@H](O)[C@@H](C)/C=C(C)/C=C/C[C@H](C)/C=C/c1oc(OC)c(C)c(=O)c1C`, the IC50 in experiment [1] was > 50000 nM; in experiment [2] it was > 50 µM; in experiment [3], > 50 µM; in experiment [4], > 50000 nM; in experiment [5] it was > 50000 nM; in experiment [6] it was > 50000 nM.

`C/C=C(\C)[C@@H](O)[C@@H](C)/C=C(C)/C=C/C[C@H](C)/C=C/C(=O)CC`: the IC50 is > 50000 nM in experiment [1]; > 50 µM in experiment [2]; > 50 µM in experiment [3]; > 50000 nM in experiment [4]; > 50000 nM in experiment [5]; > 50000 nM in experiment [6].

Turning to `C/C=C(\C)[C@@H](O[C@@H]1O[C@H](CO)[C@@H](O)[C@H](O)[C@H]1O)[C@@H](C)/C=C(C)/C=C/C[C@H](C)/C=C/c1oc(OC)c(C)c(=O)c1C` (stereo in doubt), the IC50 stood at 750 nM in experiment [1]; 1.18 µM in experiment [2]; 2.22 µM in experiment [3]; 660 nM in experiment [4]; 1000 nM in experiment [5]; 260 nM in experiment [6].

With `COc1cccc2c1C(=O)c1c(O)c3c(c(O)c1C2=O)C[C@@](O)(C(=O)CO)C[C@@H]3O[C@H]1C[C@H](N)[C@@H](O)[C@H](C)O1` [EPIRUBICIN], the IC50 turned out to be 1320 nM in experiment [1]; 9.12 µM in experiment [2]; 3.36 µM in experiment [3]; 60 nM in experiment [4]; 1200 nM in experiment [5]; 230 nM in experiment [6].

Source of the values: ChEMBL document CHEMBL5143538, “Discovery, Structure Correction, and Biosynthesis of Actinopyrones, Cytotoxic Polyketides from the Deep-Sea Hydrothermal-Vent-Derived Streptomyces sp. SCSIO ZS0520” (J Nat Prod, 2022).
